Measurements taken from patent US9006265B2, “Substituted fused pyrimidinones and dihydropyrimidinones” (Bayer Intellectual Property GmbH, priority 2010, dated 2015).

Key:
ZEAMX [1] = assay: Drought stress test on crop plants in greenhouse, spray application; format: in vivo, Zea mays; details: efficacy = percentage reduction in intensity of damage, mean of three results
Protocol: (§1) Seeds of monocotyledonous and dicotyledonous crop plants were laid out in sandy loam in wood-fiber pots, covered with soil and cultivated in a greenhouse under good growth conditions. The test plants were treated at the early leaf stage (BBCH10-BBCH13). To ensure uniform water supply before commencement of stress, the potted plants were supplied with the maximum amount of water immediately beforehand by dam irrigation and, after application, transferred in plastic inserts in order to prevent subsequent, excessively rapid drying. The inventive compounds, formulated in the form of wettable powders (WP), wettable granules (WG), suspension concentrates (SC) or emulsion concentrates (EC), were sprayed onto the green parts of the plants as an aqueous suspension at an equivalent water application rate of 600 l/ha with addition of 0.2% wetting agent (agrotin). Substance application is followed immediately by stress treatment of the plants (cold or drought stress). For cold stress treatment, the plants were kept under the following controlled conditions: • “day”: 12 hours with illumination at 8° C. • “night”: 12 hours without illumination at 1° C.
(§2) Drought stress was induced by gradual drying out under the following conditions: • “day”: 14 hours with illumination at 26° C. • “night”: 10 hours without illumination at 18° C.
(§3) The duration of the respective stress phases was guided mainly by the state of the untreated (=treated with blank formulation without test compound), stressed control plants and thus varied from crop to crop. It was ended (by re-irrigating or transfer to a greenhouse with good growth conditions) as soon as irreversible damage was observed on the untreated, stressed control plants. In the case of dicotyledonous crops, for example oilseed rape and soybeans, the duration of the drought stress phase varied between 3 and 5 days, in the case of monocotyledonous crops, for example wheat, barley or corn, between 6 and 10 days. The duration of the cold stress phase varied between 12 and 14 days.
(§4) The end of the stress phase was followed by an approx. 5-7-day recovery phase, during which the plants were once again kept under good growth conditions in a greenhouse. In order to rule out any influence of the effects observed by any fungicidal action of the test compounds, it was additionally ensured that the tests proceeded without fungal infection and without infection pressure.
(§5) After the recovery phase had ended, the intensities of damage were rated in visual comparison to untreated, unstressed controls of the same age (in the case of drought stress) or the same growth stage (in the case of cold stress). The intensity of damage was first assessed as a percentage (100%=plants have died, 0%=like control plants). These values were then used to calculate the efficacy of the test compounds (=percentage reduction in the intensity of damage as a result of substance application) by the following formula:
(§6) [formula] EF: efficacy (%) DVus: damage value of the untreated, stressed control DVts: damage value of the plants treated with test compound
(§7) The tables A-1 and B-1 to B-4 below list mean values in each case from three results of the same test.
(§8) Efficacies of selected compounds of the formula (I) under drought stress using the examples of HORVS, BRSNS, ZEAMX und TRZAS: […]

HORVS = assay: as above; format: in vivo, Hordeum vulgare; details: dosage 500 g/ha, efficacy = percentage reduction in intensity of damage, mean of three results
Protocol: Seeds of monocotyledonous and dicotyledonous crop plants were laid out in sandy loam in wood-fiber pots, covered with soil and cultivated in a greenhouse under good growth conditions. The test plants were treated at the early leaf stage (BBCH10-BBCH13). To ensure uniform water supply before commencement of stress, the potted plants were supplied with the maximum amount of water immediately beforehand by dam irrigation and, after application, transferred in plastic inserts in order to prevent subsequent, excessively rapid drying. The inventive compounds, formulated in the form of wettable powders (WP), wettable granules (WG), suspension concentrates (SC) or emulsion concentrates (EC), were sprayed onto the green parts of the plants as an aqueous suspension at an equivalent water application rate of 600 l/ha with addition of 0.2% wetting agent (agrotin). Substance application is followed immediately by stress treatment of the plants (cold or drought stress). […]
After the recovery phase had ended, the intensities of damage were rated in visual comparison to untreated, unstressed controls of the same age (in the case of drought stress) or the same growth stage (in the case of cold stress). The intensity of damage was first assessed as a percentage (100%=plants have died, 0%=like control plants). […]

ZEAMX [2] = assay: Cold stress test on crop plants in greenhouse, spray application; format: in vivo, Zea mays; details: efficacy = percentage reduction in intensity of damage, mean of three results
Protocol: Seeds of monocotyledonous and dicotyledonous crop plants were laid out in sandy loam in wood-fiber pots, covered with soil and cultivated in a greenhouse under good growth conditions. The test plants were treated at the early leaf stage (BBCH10-BBCH13). To ensure uniform water supply before commencement of stress, the potted plants were supplied with the maximum amount of water immediately beforehand by dam irrigation and, after application, transferred in plastic inserts in order to prevent subsequent, excessively rapid drying. The inventive compounds, formulated in the form of wettable powders (WP), wettable granules (WG), suspension concentrates (SC) or emulsion concentrates (EC), were sprayed onto the green parts of the plants as an aqueous suspension at an equivalent water application rate of 600 l/ha with addition of 0.2% wetting agent (agrotin). Substance application is followed immediately by stress treatment of the plants (cold or drought stress). For cold stress treatment, the plants were kept under the following controlled conditions: • “day”: 12 hours with illumination at 8° C. • “night”: 12 hours without illumination at 1° C. The duration of the respective stress phases was guided mainly by the state of the untreated (=treated with blank formulation without test compound), stressed control plants and thus varied from crop to crop. It was ended (by re-irrigating or transfer to a greenhouse with good growth conditions) as soon as irreversible damage was observed on the untreated, stressed control plants. In the case of dicotyledonous crops, for example oilseed rape and soybeans, the duration of the drought stress phase varied between 3 and 5 days, in the case of monocotyledonous crops, for example wheat, barley or corn, between 6 and 10 days. The duration of the cold stress phase varied between 12 and 14 days. The end of the stress phase was followed by an approx. 5-7-day recovery phase, during which the plants were once again kept under good growth conditions in a greenhouse. In order to rule out any influence of the effects observed by any fungicidal action of the test compounds, it was additionally ensured that the tests proceeded without fungal infection and without infection pressure. After the recovery phase had ended, the intensities of damage were rated in visual comparison to untreated, unstressed controls of the same age (in the case of drought stress) or the same growth stage (in the case of cold stress). The intensity of damage was first assessed as a percentage (100%=plants have died, 0%=like control plants). These values were then used to calculate the efficacy of the test compounds (=percentage reduction in the intensity of damage as a result of substance application) by the following formula: [formula] EF: efficacy (%) DVus: damage value of the untreated, stressed control DVts: damage value of the plants treated with test compound The tables A-1 and B-1 to B-4 below list mean values in each case from three results of the same test. Efficacies of selected compounds of the formula (I) under cold stress using the example of ZEAMX: […]

BRSNS = assay: Drought stress test on crop plants in greenhouse, spray application; format: in vivo, Brassica napes; details: efficacy = percentage reduction in intensity of damage, mean of three results
Protocol: as §1, §2, §3, §4, §5, §6, §7, §8

TRZAS = assay: as above; format: in vivo, Triticum aestivum; details: efficacy = percentage reduction in intensity of damage, mean of three results
Protocol: as §1, §2, §3, §4, §5, §6, §7, §8

For `CC(C)c1nc2ccccc2c(=O)[nH]1` [I.1-15], the “EF (ZEAMX)” value (ZEAMX [1]; dosage 500 g/ha) was over 5%.
For `O=c1[nH]c(-c2nc[nH]n2)nc2ccccc12` [I.1-30], the “EF (ZEAMX)” value (ZEAMX [1]; dosage 500 g/ha) was over 5%.
In the case of `Cc1nc2c([N+](=O)[O-])cccc2c(=O)[nH]1` [I.1-32], the “EF (HORVS)” value (HORVS) is reported as over 5%.
For `COc1cccc2c(=O)[nH]c(-c3ccc([N+](=O)[O-])cc3)nc12` [I.1-36], the “EF (ZEAMX)” value (ZEAMX [2]; dosage 25 g/ha) was over 5%.
With `Cc1ccc(-c2nc3ccccc3c(=O)[nH]2)o1` [I.1-44] the “EF (ZEAMX)” value (ZEAMX [1]; dosage 500 g/ha) was over 5%.
With `Cc1cc(-c2nc3ccccc3c(=O)[nH]2)oc1C` [I.1-45] the “EF (ZEAMX)” value (ZEAMX [1]; dosage 500 g/ha) was over 5%.
For `Cc1nc[nH]c1-c1nc2cc(Cl)ccc2c(=O)[nH]1` [I.1-139], the “EF (ZEAMX)” value (ZEAMX [1]; dosage 500 g/ha) was over 5%.
In the case of `Cc1cccc2c(=O)[nH]c(CCc3ccccc3)nc12` [I.1-145], the “EF (BRSNS)” value (BRSNS; dosage 50 g/ha) is reported as over 5%.
In the case of `O=c1[nH]c(C2CCCC2)nc2c(O)cccc12` [I.1-148], the “EF (ZEAMX)” value (ZEAMX [1]; dosage 500 g/ha) is reported as over 5%.
With `CCCCCc1nc2c(OC)cccc2c(=O)[nH]1` [I.1-153] the “EF (BRSNS)” value (BRSNS; dosage 500 g/ha) was over 5% and the “EF (ZEAMX)” value (ZEAMX [1]; dosage 500 g/ha) was over 5%.
In the case of `COc1cccc2c(=O)[nH]c(C3CCCC3)nc12` [I.1-157], the “EF (ZEAMX)” value (ZEAMX [1]; dosage 500 g/ha) is reported as over 5%.
In the case of `Cc1cc(Cl)cc2c(=O)[nH]c(-c3[nH]ncc3Br)nc12` [I.1-165], the “EF (BRSNS)” value (BRSNS; dosage 250 g/ha) is reported as over 5%, the “EF (ZEAMX)” value (ZEAMX [1]; dosage 250 g/ha) is reported as over 5% and the “EF (TRZAS)” value (TRZAS; dosage 250 g/ha) is reported as over 5%.
In the case of `O=c1[nH]c(CCc2ccccc2)nc2c(Cl)cccc12` [I.1-172], the “EF (ZEAMX)” value (ZEAMX [2]; dosage 25 g/ha) is reported as over 5%.
With `O=c1[nH]c(-c2ccc(C#Cc3ccccc3F)o2)nc2cc(Cl)ccc12` [I.1-181] the “EF (BRSNS)” value (BRSNS; dosage 250 g/ha) was over 5%.
For `Cn1cccc1-c1nc2cc(Cl)ccc2c(=O)[nH]1` [I.1-197], the “EF (ZEAMX)” value (ZEAMX [1]; dosage 250 g/ha) was over 5% and the “EF (TRZAS)” value (TRZAS; dosage 250 g/ha) was over 5%.
In the case of `O=c1[nH]c(-c2cc(Br)cs2)nc2c(Cl)cccc12` [I.1-201], the “EF (ZEAMX)” value (ZEAMX [1]; dosage 250 g/ha) is reported as over 5%.
With `O=c1[nH]c(-c2ccc(Br)cc2)nc2c(Cl)cccc12` [I.1-204] the “EF (ZEAMX)” value (ZEAMX [2]; dosage 25 g/ha) was over 5%.
In the case of `O=c1[nH]c(COc2ccccc2)nc2cc(Cl)ccc12` [I.1-303], the “EF (ZEAMX)” value (ZEAMX [1]; dosage 250 g/ha) is reported as over 5%.
In the case of `Cc1ccc2c(=O)[nH]c(-c3ccc(Cl)cc3)nc2c1` [I.1-318], the “EF (ZEAMX)” value (ZEAMX [1]; dosage 250 g/ha) is reported as over 5%.
In the case of `Cc1cccc2c(=O)[nH]c(/C=C/c3cccnc3)nc12` [I.1-338], the “EF (BRSNS)” value (BRSNS; dosage 100 g/ha) is reported as over 5%, the “EF (ZEAMX)” value (ZEAMX [1]; dosage 100 g/ha) is reported as over 5% and the “EF (TRZAS)” value (TRZAS; dosage 100 g/ha) is reported as over 5%.
With `Cc1cccc2c(=O)[nH]c(-c3ccc(Br)cc3)nc12` [I.1-378] the “EF (TRZAS)” value (TRZAS; dosage 250 g/ha) was over 5%.
With `COc1cc2nc(-c3ccoc3)[nH]c(=O)c2cc1OC` [I.1-424] the “EF (ZEAMX)” value (ZEAMX [1]; dosage 250 g/ha) was over 5%.
For `COc1cc2nc(/C=C/c3cc(OC)c(O)c(OC)c3)[nH]c(=O)c2cc1OC` [I.1-429], the “EF (ZEAMX)” value (ZEAMX [2]; dosage 250 g/ha) was over 5%.
With `COc1cc2nc(-c3cccc(C(F)(F)F)c3)[nH]c(=O)c2cc1OC` [I.1-440] the “EF (ZEAMX)” value (ZEAMX [2]; dosage 25 g/ha) was over 5%.
`Cc1ccc(-c2nc3c(C)cccc3c(=O)[nH]2)c(Cl)c1` [I.1-505, 2-(2-Chloro-4-methylphenyl)-8-methylquinazolin-4(3H)-one] gave a melting point of 234 °C.
With `Cc1nn2c([nH]c(=O)c3ccccc32)c1-c1ccccc1` [I.3-1] the “EF (BRSNS)” value (BRSNS; dosage 250 g/ha) was over 5%.
